Reference: patent publication US8247552B2, “Analogs of dehydrophenylahistins and their therapeutic use” (Nereus Pharmaceuticals, Inc., priority 2002, dated 2012)
Values after ≈ are worked out from the molar mass of the structure shown. Read-outs that look alike come from different tables or passages of the source.

Tests used:
[1] = system: PC-3 prostatic adenocarcinoma cells; assay: Tumor cytotoxicity assay, resazurin fluorescence, 48 h; assay type: cell-based; conditions: Homo sapiens, Table 1
Protocol: 10× concentrated serial dilutions of the two compounds were prepared in appropriate culture medium for final concentrations ranging from 2.0×10^−5 M to 2.0×10^−10 M. Ten μl volumes of the 10× serial dilutions were added to the test wells in triplicate and the plates returned to the incubator for 48 hours.
Resazurin dye without cells was used to determine the background, which was subtracted from the data for all experimental wells. The data were analyzed using Prism software (GraphPad Software).
PC-3, a human prostate adenocarcinoma, was maintained in F12K complete medium (F12K medium supplemented with 10% FBS; 2 mM Glutamine; 1% HEPES; and Pen/Strep at 100 IU/ml and 100 μg/ml, respectively).
20 mM stock solutions of compounds were prepared in 100% DMSO and stored at −80° C. […] Ten μl volumes of the 10× serial dilutions were added to the test wells in triplicate and the plates returned to the incubator for 48 hours.

[2] = system: Jurkat cells (human T cell leukemia line); assay: DNA fragmentation (DNA laddering) by gel electrophoresis; assay type: cell-based
Source text: A late stage characteristic of apoptosis is internucleosomal DNA cleavage that results in a distinctive ladder pattern that can be visualized by gel electrophoresis.

Trichophyton rubrum = assay: Antifungal susceptibility testing (NCCLS M38-A), MIC/MFC; assay type: cell-based
Protocol: Specifically, disclosed compounds were evaluated alongside commercially available microtubulin inhibitors as well as recognized antifungal agents.
(§1) Microorganisms against which these compounds were tested included: Candida albicans, Candida glabrata, Aspergillus fumigatus, Trichophyton rubrum, Trichophyton mentagrophytes, Epidermophyton floccosum. With the exception of Candida glabrata (one isolate), two isolates of each species were tested.
The minimum lethal concentration (MLC) was determined by plating […] from the MIC concentration and each concentration above the MIC. […] When a MIC was obtained, a minimum fungicidal concentration (MFC) was determined to assess the fungistatic/fungicidal nature of the compound.

[3] = system: Trichophyton mentagrophytes; assay: as above; assay type: cell-based
Protocol: (§2) Specifically, disclosed compounds were evaluated alongside commercially available microtubulin inhibitors as well as recognized antifungal agents. […].
as §1
(§3) Drug concentrations were 0.03-16 μg/ml for the investigational compounds, 0.015-8 μg/ml for itraconazole and griseofulvin.
(§4) The minimum lethal concentration (MLC) was determined by plating […] from the MIC concentration and each concentration above the MIC. […] When a MIC was obtained, a minimum fungicidal concentration (MFC) was determined to assess the fungistatic/fungicidal nature of the compound. […] The compound is scored as fungistatic if the cells are able to resume growth and fungicidal if no regrowth is possible because the compound had killed the organisms.

HT-29 human colon cells = assay: Tumor cytotoxicity / cell growth inhibition assay, resazurin fluorescence, 48 h; assay type: cell-based
Cytotoxicity, resazurin = assay type: cell-based; conditions: human, CCD-27sk normal fibroblasts; Table 12; CCD-27sk Fibroblast
Source text: (§5) Cells were maintained at subconfluent densities in their respective culture media.

[4] = system: OVCAR-3 (human ovarian tumor); assay: Cytotoxicity, resazurin; assay type: cell-based; conditions: Table 12, OVCAR-3 Ovary
Source text: as §5

[5] = system: poly(ADP-ribose) polymerase (PARP) in Jurkat cells; assay: Cleavage of poly(ADP-ribose) polymerase by western blotting; assay type: cell-based, human; conditions: 100 nM, 10 hours after exposure
[6] = system: DU-145 human prostate tumor; assay: DU-145 Human Prostate Tumor Xenograft Model; assay type: in vivo, mice; conditions: KPU-2 plus taxotere, treatment Days 20-27
Protocol: Selected novel compounds were administered as monotherapy via the intraperitoneal (i.p.) route at the doses indicated for the individual study; for the combination studies the selected reference chemotherapy agents were injected 15-30 min prior to the compound.
When the tumors reached ˜5 mm×5 mm (at about 13-17 days) the animals were matched into treatment and control groups. The remainder of the study proceeded as for the HT-29 model, using taxotere as the standard chemotherapy agent.
In this model unless otherwise noted for the individual study, test compounds were administered via the intraperitoneal route on Days 1, 3, 5, 8 and 11 (q3dx5); taxotere was administered intravenously on Days 1, 3 and 5 (q2dx3).

MCF-7 human breast tumor = assay: MCF-7 Human Breast Tumor Xenograft Model; assay type: in vivo, mice; conditions: combination with taxotere
Protocol: Animals used were (exceptions are indicated for individual studies): female nude mice (nu/nu) between 5 and 6 weeks of age (˜20 g, Harlan); group size was 9-10 mice per group unless otherwise indicated.
Female nude mice (˜20 g) were implanted s.c. with 21-day release estrogen (0.25 mg) pellets 24 hours prior to the s.c. implantation with MCF-7 tumor fragments (harvested from s.c. tumors in nude mice hosts). The study then proceeded as described for the HT-29 model, using taxotere as the standard chemotherapy agent.
In this model unless otherwise noted for the individual study, the novel compounds were injected via the intraperitoneal route daily on Days 1-5, inclusive (qdx5); taxotere was administered intravenously on Days 1, 3 and 5 (qodx3).
The doses of the compounds were administered on Days 1, 2, 3, 4, and 7; Taxotere was administered on Days 1, 3 and 7.

[7] = system: MDA-231 human breast tumor; assay: MDA-231 Human Breast Tumor Orthotopic (mammary fat pad) Xenograft Model; assay type: in vivo, mice; conditions: KPU-2 7.5 mg/kg ip q3dx5 with paclitaxel 16 mg/kg ip qdx5; three weeks
Protocol: The animals used were: female nude mice (nu/nu) (MDA-231 study) or B6D2F1 (B16-F10 studies) mice between 5 and 6 weeks of age (˜20 g, Harlan); group size was 10 mice per group unless otherwise indicated.
NPI compounds were administered as monotherapy via the intraperitoneal route at the doses indicated for the individual study; for the combination studies the selected reference chemotherapy agents were injected 15-30 min prior to the NPI compound.
Female nude mice were injected in the mammary fat pad with 2×10^6 MDA-231 cells harvested from in vitro cell culture. When the tumor size reached 5 mm×5 mm (about 14-28 days) the animals were matched into treatment and control groups. The study then proceeded as described for the HT-29 model, using paclitaxel as the standard chemotherapy agent.
In this model unless otherwise noted for the individual study, the test compounds were administered via the intraperitoneal route on Days 1, 4, 8, 11 and 15 (q3dx5); paclitaxel was administered via the intraperitoneal route on Days 1-5 (qdx5).
This model involves the placement of the human tumor tissue into the mouse mammary fat pad, a surrogate of the natural environment. In this manner the possibility of a positive effect due to a specific action on the subcutaneous vascular bed is avoided.

[8] = system: human prostate tumor cells; assay: Induction of apoptosis, morphological changes; assay type: cell-based
Source text: The characteristic signs of apoptotic cell death include cell membrane blebbing, disruption of nuclei, cell shrinkage and condensation and finally cell death, very distinctive from necrotic cell death. […] A similar finding was also clear in the treatment of HuVEC cells with KPU-2.

[9] = system: panel of 60 different kinases; conditions: ATP 10 μM; four kinases
HuVEC cells = assay: Microtubule (tubulin) depolymerization, α-tubulin staining; conditions: for microtubule depolymerization in HuVEC cells: 2 μM, thirty minutes exposure
Protocol: The plates were returned to the incubator for 2 days.
20 mM stock solutions of compounds were prepared in 100% DMSO and stored at −80° C. 400× concentrated dilutions of the compounds were prepared in 100% DMSO. 5 μl volumes of the dilutions were added to individual wells resulting in a final concentration of 20 nM. […] The plates were returned to the incubator for 30 minutes.
The cells were rinsed in dPBS before fixation in 10% (v/v) neutral buffered formalin for 10 minutes at room temperature. Following fixation, α-tubulin was visualized by indirect immunofluorescence. Specifically, the cells were permeabilized in 0.2% (v/v) triton X-100/dPBS for 10 minutes. The cells were washed prior to transferring the coverslips to a humidified chamber, the coverslips were blocked for two hours in antibody buffer [2% (w/v) BSA/0.1% (v/v) Tween 20/dPBS]. The coverslips were incubated with 50 μl of 0.1 μg/ml mouse α-tubulin (Molecular Probes) in antibody buffer for 1 hour before washing and incubation with 50 μl of 1 μg/ml goat anti-mouse FITC (Jackson ImmunoResearch Laboratories) for one hour in the dark. Finally, the cells were washed and treated with 2 μg/ml DAPI (Molecular Probes) for 10 minutes before rinsing in H2O and mounting with Vectashield (Vector Labs) mounting media. The cells were imaged using a 60× oil immersion objective on an upright microscope (Olympus BX51). The images were digitally captured using a CCD camera and Magnafire 2.0 software (Olympus). Post image processing was performed in Photoshop Elements 2.0 (Adobe) and in Microsoft Powerpoint.
Human umbilical vein endothelial cells (HuVECs; Cambrex CC2519A) were maintained at subconfluent densities in EGM-2 (Cambrex) media. […] The plates were returned to the incubator for 2 days.
Stock (20 mM) solutions of the test compounds were prepared in 100% DMSO. 400× concentrated dilutions of the compounds were prepared in 100% DMSO. 5 μl volumes of the dilutions were added to individual wells resulting in a final concentration of 200 nM. […] The plates were returned to the incubator for 30 minutes.
The cells were rinsed in dPBS before fixation in 10% (v/v) neutral buffered formalin for 10 minutes at room temperature. Following fixation, α-tubulin was visualized by indirect immunofluorescence. Specifically, the cells were permeabilized in 0.2% (v/v) triton X-100/dPBS for 10 minutes. The cells were washed prior to transferring the coverslips to a humidified chamber, the coverslips were blocked for two hours in antibody buffer (2% (w/v) BSA/0.1% (v/v) Tween 20/dPBS). The coverslips were incubated with 50 μl of 0.1 μg/ml mouse α-tubulin (Molecular Probes) in antibody buffer for 1 hour before washing and incubation with 50 μl of 1 μg/ml goat anti-mouse FITC (Jackson ImmunoResearch Laboratories) for one hour in the dark. Finally, the cells were washed and treated with 2 μg/ml DAPI (Molecular Probes) for 10 minutes before rinsing in H2O and mounting with Vectashield (Vector Labs) mounting media. The cells were imaged using a 60× oil immersion objective on an upright microscope (Olympus BX51). The images were digitally captured using a CCD camera and Magnafire 2.0 software (Olympus). Post image processing was performed in Photoshop Elements 2.0 (Adobe) and in Microsoft Powerpoint.

[10] = system: N202 mammary tumor vasculature; assay: Murine syngeneic pseudo-orthotopic breast cancer model, dorsal skinflap chamber, vascular targeting
Source text: A murine syngeneic “pseudo-orthotopic” breast cancer model was used to address these issues. […] To create the “pseudo-orthotopic milieu,” the coverslip of a dorsal skinflap chamber was removed and small pieces of mammary fatpad from donor mice were implanted into the chamber. On top of the fatpad graft, tumor spheroids containing N202 mammary tumor cells transduced with Histone (H2B)-green fluorescent protein (GFP) were applied. The use of H2B-GFP transduced cells allows for visualizing tumor growth and monitoring mitosis and apoptosis.
Fluorescence video microscopy allows for the relatively non-invasive study of tumor microcirculation in conscious mice.
Tumor area, blood flow rate, and vascular density within and surrounding the tumor were visualized. Real-time observations were recorded at various time-points using still photos and video microscopy.

[11] = system: P22 rat sarcoma tumor blood flow; assay: Blood flow in the P22 rat sarcoma model with 125I-IAP; assay type: in vivo; conditions: 15 mg/kg IP
Protocol: In contrast, blood flow in non-tumor tissues was affected to a much lesser extent at 1 hour (see FIG. 35).

P22 rat sarcoma = assay: Tumor necrosis in the P22 rat sarcoma model; assay type: in vivo; conditions: 7.5 and 15 mg/kg IP, 24 hours post-dose
Source text: “A dose-escalation study of the novel vascular-targeting agent, ZD6126, in patients with solid tumors,” Proc Am Soc Clin Oncol 2002; 21:abstract 438; each of which is hereby incorporated by reference in its entirety.

[12] = system: MCF7 cells (GFP-alpha-tubulin); assay: Microtubule dynamic instability in living MCF7 cells (time-lapse microscopy); assay type: cell-based, human; conditions: concentrations effecting 25% or 50% of maximal mitotic block
[13] = system: MES-SA/Dx5 (Taxol resistant) human uterine sarcoma; assay: Cytotoxicity / growth inhibition in multidrug resistant uterine sarcoma cells; assay type: cell-based; conditions: for IC50: Table 13, III
Protocol: 1) Human Uterine Sarcoma Tumor Cell Line Pair: MES-SA (Taxol Sensitive) and MES-SA/Dx5 (Taxol Resistant).
HL-60 and HL-60/MX2 cells were both seeded at 5×10^4 cells/well in 90 μl complete media into 96 well plates on the day of compound addition. […] Ten μl volumes of the 10× serial dilutions were added to the test wells in triplicate and the plates returned to the incubator for 48 hours.
Resazurin dye in medium without cells was used to determine the background, which was subtracted from the data for all experimental wells.
The multidrug resistant MES-SA/Dx5 tumor cell line was derived from the human uterine sarcoma MES-SA tumor cell line and expresses elevated P-Glycoprotein (P-gp), an ATP dependent efflux pump. […] Paclitaxel, a known substrate of the P-gp pump was included as a control.

HuVEC monolayer = HuVEC monolayer permeability to FITC-Dextran; assay type: cell-based, human
Protocol: The enhanced permeability of HuVEC cells to a fluorescent-labeled dextran is used as a proxy assay for vascular collapse.
Human umbilical vein endothelial cells (HuVECs; Cambrex CC2519A) were maintained at subconfluent densities in EGM-2 (Cambrex) media. […] For monolayer permeability assays, HuVEC cells were seeded at 1×10^5 cells/ml in EGM-2 media on Fibronectin-coated 3.0 μm Fluoroblok inserts (Becton Dickinson) in 24-well plates. The plates were returned to the incubator for 4 days to allow the cells to reach confluency.
Stock solutions (20 mM) of the test compounds were prepared in 100% DMSO. 10× concentrated serial dilutions of the compounds were prepared in EGM-2. 10 μl volumes of the serial dilutions were added to the test inserts in duplicate resulting in final concentrations ranging from 2 μM to 2 nM.
The final concentration of FITC-Dextran was 1 mg/ml.

[14] = Physicochemical stability, Z to E migration under light; conditions: visible light, normal room light
Protocol: The physicochemical stability is one of the unfavorable problems of dehydroPLH. In phenylahistin, since there is no additional olefin structure at the benzyl part, there is no such problem. […] In the cytotoxic assay, some of the compounds migrate to E-form during the incubation, although this migration probably equilibrates at the 1:1 ratio in the case of dehydroPLH. This migration can be controlled.

Epidermophyton floccosum = assay: Antifungal susceptibility testing (NCCLS M38-A), MIC/MFC; assay type: cell-based; conditions: Table 24, read-out: E. floccosum isolate #2 (column head empty, before MFC)
Protocol: as §2, §1, §3, §4

[15] = system: HL-60 human acute promyelocytic leukemia (Mitoxantrone-sensitive); assay: Cytotoxicity / growth inhibition in sensitive leukemia cells; assay type: cell-based; conditions: Table 20, mean of two independent experiments, 48 hours
Protocol: (§6) HL-60 and HL-60/MX2 cells were both seeded at 5×10^4 cells/well in 90 μl complete media into 96 well plates on the day of compound addition. 20 mM stock solutions of the compounds were prepared in 100% DMSO and stored at −80° C. […] Ten μl volumes of the 10× serial dilutions were added to the test wells in triplicate and the plates returned to the incubator for 48 hours.

[16] = system: HL-60/MX-2 (Mitoxantrone-resistant); assay: Cytotoxicity / growth inhibition in resistant leukemia cells; assay type: cell-based, human
Protocol: as §6

C=CC(C)(C)c1[nH]cnc1/C=c1\[nH]c(=O)/c(=C/c2ccccc2)[nH]c1=O [KPU-1, Dehydrophenylahistin]
EC50 [1]: 5.4 nM
DNA laddering, potency compared with KPU-2 [2]: much less potent
potency versus T. rubrum (Trichophyton rubrum): significantly less potent than the other compounds
potency versus sensitive T. mentagrophytes isolate [3]: weaker but more comparable to the others

CC(C)(C)c1[nH]cnc1/C=c1\[nH]c(=O)/c(=C/c2ccccc2)[nH]c1=O [KPU-2, tBu-dehydrophenylahistin]
cytotoxic activity against HT-29 cells (HT-29 human colon cells): active in the low nanomolar range
cytotoxicity at 48 h (Cytotoxicity, resazurin): 64.3%
IC50 [4]: > 20 nM
cleavage of PARP [5]: induced cleavage of PARP
apparent TGI of combination therapy [6]: > 58%
effect on estimated tumor growth with taxotere (MCF-7 human breast tumor): appeared to be the most effective
inhibition of tumor growth [7]: significant inhibition of tumor growth in the combination therapy group
antifungal potency compared with griseofulvin (Trichophyton rubrum; dermatophyte isolates): equivalent in potency or in some cases more potent than griseofulvin
morphological changes of apoptosis [8]: induced the typical morphological changes associated with early stages of apoptosis
IC50 against kinases inhibited >50% in primary screen [9]: low micromolar range
microtubule depolymerization in HuVEC cells (HuVEC cells): induced microtubule depolymerization

CC(C)(C)c1[nH]cnc1/C=c1\[nH]c(=O)/c(=C/c2ccccc2)[nH]c1=O [KPU-02]
tolerability ([10]; i.v. infusion 5-10 mg/kg): well tolerated
effect on tumor vasculature ([10]; single i.v. treatment): rapid collapse of the central vasculature
tumor blood flow, % of vehicle ([11]; 1 hour after administration): 23%
tumor blood flow, % vehicle ([11]; 24 hours): 59%
tumor necrosis (P22 rat sarcoma): dose-dependent tumor necrosis
effect on MT dynamic instability [12]: did not have a measurable effect on MT dynamic instability
tubulin depolymerization in HuVEC cells (HuVEC cells; 200 nM, 30 min): rapidly induce tubulin depolymerization

CC(=O)O[C@H]1C(=O)[C@@]2(C)[C@H]([C@H](OC(=O)c3ccccc3)[C@]3(O)C[C@H](OC(=O)[C@H](O)[C@@H](NC(=O)c4ccccc4)c4ccccc4)C(C)=C1C3(C)C)[C@]1(OC(C)=O)CO[C@@H]1C[C@@H]2O [Taxol]
potency in resistant MES-SA/DX5 versus sensitive MES-SA line [13]: virtually inactive
IC50 ([13]; cyclosporin A pretreatment, Study II, read-out: MES-SA/DX5 Resistant, CsA Pretreat, IC50 nM): 40 nM
IC50 ([13]; no cyclosporin A, Study I, II, read-out: MES-SA/DX5 Resistant, No CsA, IC50 nM): > 24000 nM
HuVEC monolayer permeability (HuVEC monolayer): inactive
microtubule depolymerization in HuVEC cells (HuVEC cells): did not induce microtubule depolymerization

C=CC(C)(C)c1[nH]cnc1/C=c1\[nH]c(=O)/c(=C/c2ccccc2)[nH]c1=O [dehydroPLH, dehydrophenylahistin]
Z to E migration [14]: Z to E migration frequently occurs

COC1=CC(=O)C[C@@H](C)[C@]12Oc1c(Cl)c(OC)cc(OC)c1C2=O [griseofulvin, Griseofulvin]
MFC (Epidermophyton floccosum): 4 µg/mL (≈ 11.3 µM)

O=C1c2c(O)ccc(O)c2C(=O)c2c(NCCNCCO)ccc(NCCNCCO)c21 [mitoxantrone, Mitoxantrone]
reduced susceptibility of MES-SA/DX5 cell line ([13]; versus MES-SA): 20 fold
EC50 [15]: 42 nM
EC50 ([16]; Homo sapiens, HL60/MX2, Table 20, mean of two independent experiments, 48 hours): 1100 nM
loss of efficacy in the resistant HL-60/MX-2 cell line ([16]; versus HL-60, Example 10): 24 fold
times less active against resistant HL-60/MX2 cells ([16]; versus HL-60, Example 11): ~26 times
